Assay results reported in PubChem BioAssay AID1963839 (Molecular Pharmacology Branch, DTP, NCI, 2024).

Tested on: 817829-284-R-J1-PDC complex spheroid viability
Assay: Anticancer human tumor 817829-284-R-J1-PDC patient-derived colon adenocarcinoma cell line growth inhibition [POLQ]
Details: for IC50: curve of first compound; for viability, T/C: stronger effect = lower value
Method in brief: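 Complex spheroid viability model combining PDC tumour cells with endothelial (HUVEC) and MSC stromal cells. Novobiocin, ART-558 or RP6685 were tested singly and in combination with standard and investigational anticancer drugs. Each was titrated in half-log steps from near clinical Cmax, or from 10 microM where Cmax was unknown.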

[1] = second compound 0.0316 µM, first compound 0.0316 µM
[2] = second compound 0.0316 µM, first compound 0.1 µM
[3] = second compound 0.0316 µM, first compound 0.316 µM
[4] = second compound 0.0316 µM, first compound 1 µM
[5] = second compound 0.0316 µM, first compound 3.16 µM
[6] = second compound 0.0316 µM, first compound 10 µM
[7] = second compound 0.1 µM, first compound 0.0316 µM
[8] = second compound 0.1 µM, first compound 0.1 µM
[9] = second compound 0.1 µM, first compound 0.316 µM
[10] = second compound 0.1 µM, first compound 1 µM
[11] = second compound 0.1 µM, first compound 3.16 µM
[12] = second compound 0.1 µM, first compound 10 µM
[13] = second compound 0.316 µM, first compound 0.0316 µM
[14] = second compound 0.316 µM, first compound 0.1 µM
[15] = second compound 0.316 µM, first compound 0.316 µM
[16] = second compound 0.316 µM, first compound 1 µM
[17] = second compound 0.316 µM, first compound 3.16 µM
[18] = second compound 0.316 µM, first compound 10 µM
[19] = second compound 1 µM, first compound 0.0316 µM
[20] = second compound 1 µM, first compound 0.1 µM
[21] = second compound 1 µM, first compound 0.316 µM
[22] = second compound 1 µM, first compound 1 µM
[23] = second compound 1 µM, first compound 3.16 µM
[24] = second compound 1 µM, first compound 10 µM
[25] = second compound 3.16 µM, first compound 0.0316 µM
[26] = second compound 3.16 µM, first compound 0.1 µM
[27] = second compound 3.16 µM, first compound 0.316 µM
[28] = second compound 3.16 µM, first compound 1 µM
[29] = second compound 3.16 µM, first compound 3.16 µM
[30] = second compound 3.16 µM, first compound 10 µM
[31] = second compound 10 µM, first compound 0.0316 µM
[32] = second compound 10 µM, first compound 0.1 µM
[33] = second compound 10 µM, first compound 0.316 µM
[34] = second compound 10 µM, first compound 1 µM
[35] = second compound 10 µM, first compound 3.16 µM
[36] = second compound 10 µM, first compound 10 µM
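Also: spheroids exposed to compounds for 7 days.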
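For viability, T/C in this document: 100% = DMSO vehicle-treated spheroids.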

CC1COCCN1c1cc(C2(O)CC3CCC(C2)O3)c2cnn(-c3ccn[nH]3)c2n1 (centres undefined) + Cc1cccc(N(C)C(=O)C2C(O)CCN2c2nc(C)cc(C(F)(F)F)c2C#N)c1
IC50 (second compound 0.0316 µM): < 0.0316 µM | IC50 (second compound 0.1 µM): < 0.0316 µM | IC50 (second compound 0.316 µM): < 0.0316 µM | IC50 (second compound 1 µM): < 0.0316 µM | IC50 (second compound 3.16 µM): < 0.0316 µM | IC50 (second compound 10 µM): < 0.0316 µM | viability, T/C [1]: 28.6% | viability, T/C [2]: 10.7% | viability, T/C [3]: 4.5% | viability, T/C [4]: 3.59% | viability, T/C [5]: 2.99% | viability, T/C [6]: 2.26% | viability, T/C [7]: 29.8% | viability, T/C [8]: 11.4% | viability, T/C [9]: 4.57% | viability, T/C [10]: 3.83% | viability, T/C [11]: 3.59% | viability, T/C [12]: 2.95% | viability, T/C [13]: 28.6% | viability, T/C [14]: 9.76% | viability, T/C [15]: 3.78% | viability, T/C [16]: 3.72% | viability, T/C [17]: 3.01% | viability, T/C [18]: 1.9% | viability, T/C [19]: 24.4% | viability, T/C [20]: 9.97% | viability, T/C [21]: 4.66% | viability, T/C [22]: 4.17% | viability, T/C [23]: 2.77% | viability, T/C [24]: 2.21% | viability, T/C [25]: 26.8% | viability, T/C [26]: 9.02% | viability, T/C [27]: 5.06% | viability, T/C [28]: 3.24% | viability, T/C [29]: 2.62% | viability, T/C [30]: 2.27% | viability, T/C [31]: 23% | viability, T/C [32]: 10.3% | viability, T/C [33]: 6.05% | viability, T/C [34]: 3.31% | viability, T/C [35]: 2.74% | viability, T/C [36]: 2.44%

O=C(Nc1ccc(O)c(NS(=O)(=O)c2ccc(F)cc2)c1)c1ccc(-c2ccccc2)cc1 + Cc1cccc(N(C)C(=O)C2C(O)CCN2c2nc(C)cc(C(F)(F)F)c2C#N)c1
IC50 (second compound 0.0316 µM): 8.08 µM | IC50 (second compound 0.1 µM): 7.5 µM | IC50 (second compound 0.316 µM): 8.91 µM | IC50 (second compound 1 µM): 6.36 µM | IC50 (second compound 3.16 µM): 5.44 µM | IC50 (second compound 10 µM): 5.2 µM | viability, T/C [1]: 110% | viability, T/C [2]: 106% | viability, T/C [3]: 113% | viability, T/C [4]: 78.7% | viability, T/C [5]: 91.2% | viability, T/C [6]: 41% | viability, T/C [7]: 98.8% | viability, T/C [8]: 79.1% | viability, T/C [9]: 106% | viability, T/C [10]: 90.5% | viability, T/C [11]: 72.6% | viability, T/C [12]: 42.5% | viability, T/C [13]: 96.3% | viability, T/C [14]: 93.2% | viability, T/C [15]: 95.9% | viability, T/C [16]: 87.9% | viability, T/C [17]: 87.6% | viability, T/C [18]: 45.5% | viability, T/C [19]: 80.6% | viability, T/C [20]: 90.5% | viability, T/C [21]: 92.4% | viability, T/C [22]: 94.7% | viability, T/C [23]: 64.8% | viability, T/C [24]: 40.4% | viability, T/C [25]: 95.6% | viability, T/C [26]: 101% | viability, T/C [27]: 102% | viability, T/C [28]: 98.9% | viability, T/C [29]: 60.8% | viability, T/C [30]: 37.9% | viability, T/C [31]: 98.4% | viability, T/C [32]: 84.5% | viability, T/C [33]: 92.5% | viability, T/C [34]: 83.7% | viability, T/C [35]: 65% | viability, T/C [36]: 30%
